From ChEMBL document CHEMBL1132959, “Design of potent dicyclic (1-5/4-10) gonadotropin releasing hormone (GnRH) antagonists” (J Med Chem, 2000)
pKi: −log10 of the molar value. Bridge positions count the residues as written; N and C are the ends. Square brackets hold non-standard residues; d marks the D form. Peptide text beside a SMILES is read from it. dPhe(4-F) = N[C@H](Cc1ccc(F)cc1)C(=O)O; d2Nal = N[C@H](Cc1ccc2ccccc2c1)C(=O)O; ΔPro = O=C(O)[C@@H]1C=CCN1; Dap = NC[C@H](N)C(=O)O

Assays:
[1] = target: T1, Gonadotropin-releasing hormone receptor (Rattus norvegicus, UniProt P30969); test: Affinity for rat gonadotrophin releasing hormone (GnRH) receptor using HEK293 cells transfected with rat Gonadotropin-releasing hormone receptor; format: cell-based; settings: hek293
T1 sequence (P30969 whole entry): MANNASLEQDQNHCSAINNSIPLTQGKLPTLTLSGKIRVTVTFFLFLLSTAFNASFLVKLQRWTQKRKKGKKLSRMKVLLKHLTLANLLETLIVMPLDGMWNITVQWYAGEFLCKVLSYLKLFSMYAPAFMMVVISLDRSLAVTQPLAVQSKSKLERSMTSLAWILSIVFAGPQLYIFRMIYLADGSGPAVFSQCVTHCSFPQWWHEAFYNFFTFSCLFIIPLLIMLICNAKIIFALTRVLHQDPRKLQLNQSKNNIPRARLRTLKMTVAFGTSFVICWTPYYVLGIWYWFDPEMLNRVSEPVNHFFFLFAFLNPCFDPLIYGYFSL

Rattus norvegicus [2] = species: Rattus norvegicus; test: Antiovulatory potency at 25 ug/rat expressed as rats ovulating by total no. of rats (4/8); format: functional
Rattus norvegicus [3] = species: Rattus norvegicus; test: Antiovulatory potency at 10 ug/rat expressed as rats ovulating by total no. of rats (4/4); format: functional
Rattus norvegicus [4] = species: Rattus norvegicus; test: Antiovulatory potency at 25 ug/rat expressed as rats ovulating by total no. of rats (2/4); format: functional
Rattus norvegicus [5] = species: Rattus norvegicus; test: Antiovulatory potency at 10 ug/rat expressed as rats ovulating by total no. of rats (0/5); format: functional
Rattus norvegicus [6] = species: Rattus norvegicus; test: Antiovulatory potency at 5 ug/rat expressed as rats ovulating by total no. of rats (4/10); format: functional
Rattus norvegicus [7] = species: Rattus norvegicus; test: Antiovulatory potency at 10 ug/rat expressed as rats ovulating by total no. of rats (0/10); format: functional
Rattus norvegicus [8] = species: Rattus norvegicus; test: Antiovulatory potency at 1 ug/rat expressed as rats ovulating by total no. of rats (4/4); format: functional
Rattus norvegicus [9] = species: Rattus norvegicus; test: Antiovulatory potency at 2.5 ug/rat expressed as rats ovulating by total no. of rats (3/5); format: functional
Rattus norvegicus [10] = species: Rattus norvegicus; test: Antiovulatory potency at 5 ug/rat expressed as rats ovulating by total no. of rats (3/5); format: functional
Rattus norvegicus [11] = species: Rattus norvegicus; test: Antiovulatory potency at 5 ug/rat expressed as rats ovulating by total no. of rats (3/20); format: functional
Rattus norvegicus [12] = species: Rattus norvegicus; test: Antiovulatory potency at 25 ug/rat expressed as rats ovulating by total no. of rats (7/8); format: functional
Rattus norvegicus [13] = species: Rattus norvegicus; test: Antiovulatory potency at 10 ug/rat expressed as rats ovulating by total no. of rats (5/6); format: functional
Rattus norvegicus [14] = species: Rattus norvegicus; test: Antiovulatory potency at 50 ug/rat expressed as rats ovulating by total no. of rats (0/6); format: functional
Rattus norvegicus [15] = species: Rattus norvegicus; test: Antiovulatory potency at 10 ug/rat expressed as rats ovulating by total no. of rats (1/6); format: functional
Rattus norvegicus [16] = species: Rattus norvegicus; test: Antiovulatory potency at 25 ug/rat expressed as rats ovulating by total no. of rats (0/3); format: functional
Rattus norvegicus [17] = species: Rattus norvegicus; test: Antiovulatory potency at 5 ug/rat expressed as rats ovulating by total no. of rats (2/8); format: functional
Rattus norvegicus [18] = species: Rattus norvegicus; test: Antiovulatory potency at 250 ug/rat expressed as rats ovulating by total no. of rats (3/6); format: functional
Rattus norvegicus [19] = species: Rattus norvegicus; test: Antiovulatory potency at 100 ug/rat expressed as rats ovulating by total no. of rats (2/6); format: functional
Rattus norvegicus [20] = species: Rattus norvegicus; test: Antiovulatory potency at 50 ug/rat expressed as rats ovulating by total no. of rats (5/5); format: functional
Rattus norvegicus [21] = species: Rattus norvegicus; test: Antiovulatory potency at 250 ug/rat expressed as rats ovulating by total no. of rats (5/6); format: functional

CC(=O)N[C@@H]1CCC(=O)NCCC[C@H]2NC(=O)[C@@H](CC(=O)NC[C@H](C(N)=O)NC(=O)[C@H]3CCCN3C(=O)[C@H](CCCN=C(N)N)NC(=O)[C@@H](CC(C)C)NC(=O)[C@@H](Cc3ccc4ccccc4c3)NC2=O)NC(=O)[C@@H](Cc2c[nH]c3ccccc23)NC(=O)[C@H](Cc2ccc(Cl)cc2)NC1=O gave a pKi [1] of 9.07, an Ovulating rats (Rattus norvegicus [2]) of 4 and an Ovulating rats (Rattus norvegicus [3]) of 4.

Compound CC(=O)N[C@@H]1CCC(=O)N[C@H](C)C(=O)NCC[C@H]2NC(=O)[C@@H](CC(=O)NC[C@H](C(N)=O)NC(=O)[C@H]3CCCN3C(=O)[C@H](CCCN=C(N)N)NC(=O)[C@@H](CC(C)C)NC(=O)[C@@H](Cc3ccc4ccccc4c3)NC2=O)NC(=O)[C@@H](Cc2c[nH]c3ccccc23)NC(=O)[C@H](Cc2ccc(Cl)cc2)NC1=O has an Ovulating rats (Rattus norvegicus [4]) of 2, a pKi [1] of 9.66 and an Ovulating rats (Rattus norvegicus [5]) of 0.

With CC(=O)N1CC=C[C@H]1C(=O)N[C@H](Cc1ccc(F)cc1)C(=O)N[C@H](Cc1c[nH]c2ccccc12)C(=O)N[C@H]1CC(=O)NC[C@@H](C(N)=O)NC(=O)[C@@H]2CCCN2C(=O)[C@H](CCCN=C(N)N)NC(=O)[C@H](CC(C)C)NC(=O)[C@@H](Cc2ccc3ccccc3c2)NC(=O)[C@H](Cc2ccc(O)cc2)NC1=O (Ac-[ΔPro][dPhe(4-F)][dW]DY[d2Nal]LRP[Dap]-NH2; lactam 4-10) the Ovulating rats (Rattus norvegicus [6]) was 4 and the Ovulating rats (Rattus norvegicus [7]) was 0.

CC(=O)N[C@@H]1CC(=O)NCC(=O)NCC[C@H]2NC(=O)[C@@H](CC(=O)NC[C@H](C(N)=O)NC(=O)[C@H]3CCCN3C(=O)[C@H](CCCN=C(N)N)NC(=O)[C@@H](CC(C)C)NC(=O)[C@@H](Cc3ccc4ccccc4c3)NC2=O)NC(=O)[C@@H](Cc2cccnc2)NC(=O)[C@H](Cc2ccc(Cl)cc2)NC1=O showed an Ovulating rats (Rattus norvegicus [8]) of 4, an Ovulating rats (Rattus norvegicus [9]) of 3 and an Ovulating rats (Rattus norvegicus [10]) of 3. The pKi [1] was 9.92.

CC(=O)N[C@H](Cc1ccc2ccccc2c1)C(=O)N[C@H](Cc1ccc(F)cc1)C(=O)N[C@H](Cc1c[nH]c2ccccc12)C(=O)N[C@H]1CC(=O)NC[C@@H](C(N)=O)NC(=O)[C@@H]2CCCN2C(=O)[C@@H]2CCCCNC(=O)CC[C@H](NC1=O)C(=O)N[C@H](CCCN=C(N)N)C(=O)N[C@@H](CC(C)C)C(=O)N2 showed an Ovulating rats (Rattus norvegicus [7]) of 0 and an Ovulating rats (Rattus norvegicus [11]) of 3.

For CC(=O)N[C@@H]1CCC(=O)NCC(=O)NCCC[C@H]2NC(=O)[C@@H](CC(=O)NC[C@H](C(N)=O)NC(=O)[C@H]3CCCN3C(=O)[C@H](CCCN=C(N)N)NC(=O)[C@@H](CC(C)C)NC(=O)[C@@H](Cc3ccc4ccccc4c3)NC2=O)NC(=O)[C@@H](Cc2c[nH]c3ccccc23)NC(=O)[C@H](Cc2ccc(Cl)cc2)NC1=O, the Ovulating rats (Rattus norvegicus [12]) was 7, the Ovulating rats (Rattus norvegicus [13]) was 5 and the Ovulating rats (Rattus norvegicus [14]) was 0. The pKi [1] was 8.96.

CC(=O)N[C@H](Cc1ccc2ccccc2c1)C(=O)N[C@H](Cc1ccc(F)cc1)C(=O)N[C@H](Cc1cccnc1)C(=O)N[C@H]1CC(=O)NC[C@@H](C(N)=O)NC(=O)[C@@H]2CCCN2C(=O)[C@@H]2CCNC(=O)CNC(=O)CC[C@H](NC1=O)C(=O)N[C@H](CCCN=C(N)N)C(=O)N[C@@H](CC(C)C)C(=O)N2 gave an Ovulating rats (Rattus norvegicus [15]) of 1, an Ovulating rats (Rattus norvegicus [16]) of 0 and an Ovulating rats (Rattus norvegicus [17]) of 2.

Compound CC(=O)N[C@@H]1CCC(=O)NCCCC[C@@H]2NC(=O)[C@H](CC(C)C)NC(=O)[C@@H](Cc3ccc4ccccc4c3)NC(=O)[C@H](CCCN=C(N)N)NC(=O)[C@H](CC(=O)NC[C@H](C(N)=O)NC(=O)[C@@H]3CCCN3C2=O)NC(=O)[C@@H](Cc2cccnc2)NC(=O)[C@H](Cc2ccc(Cl)cc2)NC1=O has an Ovulating rats (Rattus norvegicus [18]) of 3, a pKi [1] of 8.74 and an Ovulating rats (Rattus norvegicus [19]) of 2.

CC(=O)N[C@H](Cc1ccc2ccccc2c1)C(=O)N[C@H](Cc1ccc(Cl)cc1)C(=O)N[C@@H]1CSSC[C@@H](C(=O)N2CCC[C@H]2C(=O)N[C@H](C)C(N)=O)NC(=O)[C@H](CC(C)C)NC(=O)[C@@H](Cc2ccc3ccccc3c2)NC(=O)[C@H](CCCN=C(N)N)NC(=O)[C@H](C)NC1=O was tested, and the Ovulating rats (Rattus norvegicus [20]) was 5 and the Ovulating rats (Rattus norvegicus [21]) was 5.
